The assay deals with T1, BRM (Homo sapiens, UniProt P51531).
T1 construct: In-Cell Western Screen of BRM Degradation in SW1573 Cells; endogenous in cells; host or cells: SW1573
In words: In-cell Western screen of BRM degradation in SW1573 cells (Dmax and DC50). The assay is classed as cell-based. The method, boiled down: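 SW1573, overnight cpd exposure (18-20 h), 0.1% DMSO final. PFA fix, 0.5% Triton permeabilization, block; IR secondaries at 800/680 nm. Odyssey read → Dmax, DC50.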

Where [1] appears, read: BRM degradation, SW1573 cells, read-out: DC50.
[2] abbreviates: BRM degradation, SW1573 cells, tested at the top concentration of between 0.3 and 10 μM, read-out: Dmax (%) (% degraded).
Setting [3] is: SW1573, % degraded, when tested at the top concentration of between 0.3 and 10 μM, read-out: BRM Dmax (%).
[4] abbreviates: target protein degradation, read-out: BRM DC50.

Read-outs that look alike come from different tables or passages of the source. Where only a bound is given, the exact number is not on record here.

T1 sequence (P51531 whole entry): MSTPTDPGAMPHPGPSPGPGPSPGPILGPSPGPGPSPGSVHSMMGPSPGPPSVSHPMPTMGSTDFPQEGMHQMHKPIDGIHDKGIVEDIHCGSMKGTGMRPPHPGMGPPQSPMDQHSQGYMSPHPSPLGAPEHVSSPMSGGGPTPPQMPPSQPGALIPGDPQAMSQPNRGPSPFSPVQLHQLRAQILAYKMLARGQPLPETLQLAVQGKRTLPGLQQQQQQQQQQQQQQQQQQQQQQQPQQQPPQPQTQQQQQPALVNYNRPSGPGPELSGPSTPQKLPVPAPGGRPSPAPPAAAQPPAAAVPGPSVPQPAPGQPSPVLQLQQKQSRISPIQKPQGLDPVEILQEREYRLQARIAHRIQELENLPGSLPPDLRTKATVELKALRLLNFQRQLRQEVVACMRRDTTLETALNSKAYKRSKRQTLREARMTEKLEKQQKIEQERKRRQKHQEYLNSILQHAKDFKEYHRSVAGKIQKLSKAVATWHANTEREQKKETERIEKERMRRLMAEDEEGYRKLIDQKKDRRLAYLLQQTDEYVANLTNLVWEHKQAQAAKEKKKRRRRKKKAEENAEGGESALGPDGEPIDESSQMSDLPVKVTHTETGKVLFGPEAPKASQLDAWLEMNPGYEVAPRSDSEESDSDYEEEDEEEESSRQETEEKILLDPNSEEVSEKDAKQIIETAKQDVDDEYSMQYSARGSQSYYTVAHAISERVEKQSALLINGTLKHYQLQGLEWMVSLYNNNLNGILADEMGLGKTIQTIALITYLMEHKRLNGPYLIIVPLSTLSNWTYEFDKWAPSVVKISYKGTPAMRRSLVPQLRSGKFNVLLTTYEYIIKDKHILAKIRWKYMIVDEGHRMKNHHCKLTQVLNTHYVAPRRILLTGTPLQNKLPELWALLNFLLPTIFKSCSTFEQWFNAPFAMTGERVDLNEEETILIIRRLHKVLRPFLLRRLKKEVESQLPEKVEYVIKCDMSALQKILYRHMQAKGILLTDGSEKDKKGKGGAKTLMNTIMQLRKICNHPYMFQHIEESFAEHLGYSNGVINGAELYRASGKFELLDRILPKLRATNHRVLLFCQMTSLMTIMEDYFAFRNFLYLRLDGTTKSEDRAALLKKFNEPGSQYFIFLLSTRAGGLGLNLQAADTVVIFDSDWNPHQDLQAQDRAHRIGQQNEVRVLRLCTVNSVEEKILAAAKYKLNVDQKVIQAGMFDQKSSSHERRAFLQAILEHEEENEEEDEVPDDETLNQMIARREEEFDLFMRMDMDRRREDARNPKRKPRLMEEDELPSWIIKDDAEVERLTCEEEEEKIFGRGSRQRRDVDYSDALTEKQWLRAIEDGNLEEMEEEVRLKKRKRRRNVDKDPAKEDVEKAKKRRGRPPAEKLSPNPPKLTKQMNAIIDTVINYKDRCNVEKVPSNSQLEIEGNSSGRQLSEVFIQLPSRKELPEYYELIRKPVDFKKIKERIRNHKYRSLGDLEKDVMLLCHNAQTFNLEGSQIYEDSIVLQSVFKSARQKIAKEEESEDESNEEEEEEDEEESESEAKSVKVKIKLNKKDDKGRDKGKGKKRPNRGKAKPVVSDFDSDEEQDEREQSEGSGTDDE

The term DC50 denotes the concentration giving 50% degradation. As for `Cc1ncsc1-c1ccc([C@@H](COCC(C)C)NC(=O)[C@@H]2C[C@@H](O)CN2C(=O)[C@H](c2cc(OCCN3CCN(CCOc4cc(N5C6CCC5CN(c5cc(-c7ccccc7O)nnc5N)C6)ccn4)CC3)no2)C(C)C)cc1` [compound 297], the DC50 under setting [1] was over 30 nM. What is called Dmax is the greatest extent of degradation seen. Consider `Cc1ncsc1-c1ccc([C@@H](COCC(C)C)NC(=O)[C@@H]2C[C@@H](O)CN2C(=O)[C@@H](c2cc(OCCN3CCN(CCOc4cc(N5C6CCC5CN(c5cc(-c7ccccc7O)nnc5N)C6)ccn4)CC3)no2)C(C)C)cc1` [compound 298, (2S,4R)-1-((2R)-2-(3-(2-(4-(2-((4-(3-(3-amino-6-(2-hydroxyphenyl)pyridazin-4-yl)-3,8-diazabicyclo[3.2.1]octan-8-yl)pyridin-2-yl)oxy)ethyl)piperazin-1-yl)ethoxy)isoxazol-5-yl)-3-methylbutanoyl)-4-hydroxy-N-((S)-2-isobutoxy-1-(4-(4-methylthiazol-5-yl)phenyl)ethyl)pyrrolidine-2-carboxamide], for which the DC50 under setting [1] is under 2.5 nM. For the same molecule, under setting [2], the maximal degradation (Dmax) was over 75%. In the case of `Cc1ncoc1-c1ccc([C@H](C)NC(=O)[C@@H]2C[C@@H](O)CN2C(=O)[C@H](c2cc(OCCN3CCN(CCOc4cc(N5C6CCC5CN(c5cc(-c7ccccc7O)nnc5N)C6)ccn4)CC3)no2)C(C)C)cc1` [compound 299, (2S,4R)-1-((2S)-2-(3-(2-(4-(2-((4-(3-(3-amino-6-(2-hydroxyphenyl)pyridazin-4-yl)-3,8-diazabicyclo[3.2.1]octan-8-yl)pyridin-2-yl)oxy)ethyl)piperazin-1-yl)ethoxy)isoxazol-5-yl)-3-methylbutanoyl)-4-hydroxy-N-((S)-1-(4-(4-methyloxazol-5-yl)phenyl)ethyl)pyrrolidine-2-carboxamide], the DC50 under setting [1] is over 30 nM. For `Cc1ncoc1-c1ccc([C@H](C)NC(=O)[C@@H]2C[C@@H](O)CN2C(=O)[C@@H](c2cc(OCCN3CCN(CCOc4cc(N5C6CCC5CN(c5cc(-c7ccccc7O)nnc5N)C6)ccn4)CC3)no2)C(C)C)cc1` [compound 300, (2S,4R)-1-((2R)-2-(3-(2-(4-(2-((4-(3-(3-amino-6-(2-hydroxyphenyl)pyridazin-4-yl)-3,8-diazabicyclo[3.2.1]octan-8-yl)pyridin-2-yl)oxy)ethyl)piperazin-1-yl)ethoxy)isoxazol-5-yl)-3-methylbutanoyl)-4-hydroxy-N-((S)-1-(4-(4-methyloxazol-5-yl)phenyl)ethyl)pyrrolidine-2-carboxamide], the half-maximal degradation concentration (DC50) under setting [1] is under 2.5 nM. In addition, the Dmax under setting [2] was over 75%. Consider `Cc1cc([C@@H](C(=O)N2C[C@H](O)C[C@H]2C(=O)N[C@@H](C)c2ccc(-c3scnc3C)cc2)[C@@H](C)COCCOc2cc(N3C4CCC3CN(c3cc(-c5ccccc5O)nnc3N)C4)ccn2)on1` [compound 301, (2S,4R)-1-((2S,3R)-4-(2-((4-(3-(3-amino-6-(2-hydroxyphenyl)pyridazin-4-yl)-3,8-diazabicyclo[3.2.1]octan-8-yl)pyridin-2-yl)oxy)ethoxy)-3-methyl-2-(3-methylisoxazol-5-yl)butanoyl)-4-hydroxy-N-((S)-1-(4-(4-methylthiazol-5-yl)phenyl)ethyl)pyrrolidine-2-carboxamide], for which the DC50 under setting [1] lay in the range of 2.5 to 10 nM. The Dmax under setting [2] is over 75%. The like results for `Cc1cc([C@H](C(=O)N2C[C@H](O)C[C@H]2C(=O)N[C@@H](C)c2ccc(-c3scnc3C)cc2)[C@@H](C)COCCOc2cc(N3C4CCC3CN(c3cc(-c5ccccc5O)nnc3N)C4)ccn2)on1` [compound 302, (2S,4R)-1-((2R,3R)-4-(2-((4-(3-(3-amino-6-(2-hydroxyphenyl)pyridazin-4-yl)-3,8-diazabicyclo[3.2.1]octan-8-yl)pyridin-2-yl)oxy)ethoxy)-3-methyl-2-(3-methylisoxazol-5-yl)butanoyl)-4-hydroxy-N-((S)-1-(4-(4-methylthiazol-5-yl)phenyl)ethyl)pyrrolidine-2-carboxamide] were, in that order, 10 to 30 nM and over 75%. For `CC[C@H](NC(=O)[C@@H]1C[C@@H](O)CN1C(=O)[C@H](c1cc(OCCN2CCC(O[C@H]3C[C@H](Oc4cc(N5C6CCC5CN(c5cc(-c7ccccc7O)nnc5N)C6)ccn4)C3)CC2)no1)C(C)C)c1ccc(-c2scnc2C)cc1` [compound 350, (2S,4R)-1-((2S)-2-(3-(2-(4-((1r,3S)-3-((4-(3-(3-amino-6-(2-hydroxyphenyl)pyridazin-4-yl)-3,8-diazabicyclo[3.2.1]octan-8-yl)pyridin-2-yl)oxy)cyclobutoxy)piperidin-1-yl)ethoxy)isoxazol-5-yl)-3-methylbutanoyl)-4-hydroxy-N-((S)-1-(4-(4-methylthiazol-5-yl)phenyl)propyl)pyrrolidine-2-carboxamide], under setting [1], the DC50 was over 30 nM. Consider `CC[C@H](NC(=O)[C@@H]1C[C@@H](O)CN1C(=O)C(c1cc(OCCN2CCC(O[C@H]3C[C@H](Oc4cc(N5C6CCC5CN(c5cc(-c7ccccc7O)nnc5N)C6)ccn4)C3)CC2)no1)C(C)C)c1ccc(-c2scnc2C)cc1` (stereo partly drawn) [compound 351, (2S,4R)-1-((2R)-2-(3-(2-(4-((1r,3R)-3-((4-(3-(3-amino-6-(2-hydroxyphenyl)pyridazin-4-yl)-3,8-diazabicyclo[3.2.1]octan-8-yl)pyridin-2-yl)oxy)cyclobutoxy)piperidin-1-yl)ethoxy)isoxazol-5-yl)-3-methylbutanoyl)-4-hydroxy-N-((S)-1-(4-(4-methylthiazol-5-yl)phenyl)propyl)pyrrolidine-2-carboxamide], for which the DC50 under setting [1] is under 2.5 nM. The Dmax under setting [2] was over 75%. In the case of `Cc1ncsc1-c1ccc([C@H](C)NC(=O)[C@@H]2C[C@@H](O)CN2C(=O)[C@@H](c2cc(OCCN3CCN(CCC#CCn4cc(-c5cc(-c6ccccc6O)nnc5N)cn4)CC3)no2)C(C)C)cn1` [compound 352, (2S,4R)-1-((R)-2-(3-(2-(4-(5-(4-(3-amino-6-(2-hydroxyphenyl)pyridazin-4-yl)-1H-pyrazol-1-yl)pent-3-yn-1-yl)piperazin-1-yl)ethoxy)isoxazol-5-yl)-3-methylbutanoyl)-4-hydroxy-N-((S)-1-(6-(4-methylthiazol-5-yl)pyridin-3-yl)ethyl)pyrrolidine-2-carboxamide], the DC50 under setting [1] was under 2.5 nM. Further, the Dmax under setting [2] was over 75%. Consider `Cc1ncsc1-c1ccc([C@H](C)NC(=O)[C@@H]2C[C@@H](O)CN2C(=O)[C@H](c2cc(OCCN3CCC(OC4CN(c5cc(N6C7CCC6CN(c6cc(-c8ccccc8O)nnc6N)C7)ccn5)C4)CC3)no2)C(C)C)cc1` [compound 354, (2S,4R)-1-((2S)-2-(3-(2-(4-((1-(4-(3-(3-amino-6-(2-hydroxyphenyl)pyridazin-4-yl)-3,8-diazabicyclo[3.2.1]octan-8-yl)pyridin-2-yl)azetidin-3-yl)oxy)piperidin-1-yl)ethoxy)isoxazol-5-yl)-3-methylbutanoyl)-4-hydroxy-N-((S)-1-(4-(4-methylthiazol-5-yl)phenyl)ethyl)pyrrolidine-2-carboxamide], for which the Dmax under setting [3] is over 75%. For the same molecule, under setting [4], the DC50 was in the range of 2.5 to 10 nM. In the case of `Cc1ncsc1-c1ccc([C@H](C)NC(=O)[C@@H]2C[C@@H](O)CN2C(=O)[C@@H](c2cc(OCCN3CCC(OC4CN(c5cc(N6C7CCC6CN(c6cc(-c8ccccc8O)nnc6N)C7)ccn5)C4)CC3)no2)C(C)C)cc1` [compound 355, (2S,4R)-1-((2R)-2-(3-(2-(4-((1-(4-(3-(3-amino-6-(2-hydroxyphenyl)pyridazin-4-yl)-3,8-diazabicyclo[3.2.1]octan-8-yl)pyridin-2-yl)azetidin-3-yl)oxy)piperidin-1-yl)ethoxy)isoxazol-5-yl)-3-methylbutanoyl)-4-hydroxy-N-((S)-1-(4-(4-methylthiazol-5-yl)phenyl)ethyl)pyrrolidine-2-carboxamide], the Dmax under setting [3] was over 75%. For the same molecule, the DC50 under setting [4] is under 2.5 nM. As for `Cc1ncsc1-c1ccc([C@H](C)NC(=O)[C@@H]2C[C@@H](O)CN2C(=O)[C@H](c2cc(OCCOCCOc3cc(N4C5CCC4CN(c4cc(-c6ccccc6O)nnc4N)C5)ccn3)no2)C(C)C)cc1` [compound 356, (2S,4R)-1-((2S)-2-(3-(2-(2-((4-(3-(3-amino-6-(2-hydroxyphenyl)pyridazin-4-yl)-3,8-diazabicyclo[3.2.1]octan-8-yl)pyridin-2-yl)oxy)ethoxy)ethoxy)isoxazol-5-yl)-3-methylbutanoyl)-4-hydroxy-N-((S)-1-(4-(4-methylthiazol-5-yl)phenyl)ethyl)pyrrolidine-2-carboxamide], under setting [4], the DC50 is over 30 nM. Regarding `Cc1ncsc1-c1ccc([C@H](C)NC(=O)[C@@H]2C[C@@H](O)CN2C(=O)[C@@H](c2cc(OCCOCCOc3cc(N4C5CCC4CN(c4cc(-c6ccccc6O)nnc4N)C5)ccn3)no2)C(C)C)cc1` [compound 357, (2S,4R)-1-((2R)-2-(3-(2-(2-((4-(3-(3-amino-6-(2-hydroxyphenyl)pyridazin-4-yl)-3,8-diazabicyclo[3.2.1]octan-8-yl)pyridin-2-yl)oxy)ethoxy)ethoxy)isoxazol-5-yl)-3-methylbutanoyl)-4-hydroxy-N-((S)-1-(4-(4-methylthiazol-5-yl)phenyl)ethyl)pyrrolidine-2-carboxamide], the Dmax under setting [3] is over 75%. Under setting [4], the DC50 is under 2.5 nM. On to `Cc1ncsc1-c1ccc([C@H](C)NC(=O)[C@@H]2C[C@@H](O)CN2C(=O)[C@H](c2cc(OCCN3CCC(O[C@H]4C[C@H](OCCN5CCOC6(CCN(c7cc(-c8ccccc8O)nnc7N)CC6)C5)C4)CC3)no2)C(C)C)cc1` [compound 358, (2S,4R)-1-((S)-2-(3-(2-(4-((1r,3S)-3-(2-(9-(3-amino-6-(2-hydroxyphenyl)pyridazin-4-yl)-1-oxa-4,9-diazaspiro[5.5]undecan-4-yl)ethoxy)cyclobutoxy)piperidin-1-yl)ethoxy)isoxazol-5-yl)-3-methylbutanoyl)-4-hydroxy-N-((S)-1-(4-(4-methylthiazol-5-yl)phenyl)ethyl)pyrrolidine-2-carboxamide], for which the DC50 under setting [4] was over 30 nM.

Source of the values: US12539292B2, “BRM targeting compounds and associated methods of use” (Arvinas Operations, Inc., priority 2018, dated 2026).
